Experimental data published in the Bradley open melting point set (2014).

First: CC(=O)C1=CC[C@H]2[C@@H]3CC(=O)C4=C[C@@H](O)CC[C@]4(C)[C@H]3CC[C@]12C [3β-Hydroxypregna-4,16-diene-6,20-dione]
Second: O=C(NC1CCC(O)CC1)OCc1ccccc1 (centres undefined) [4-(benzyloxycarbonylamino)cyclohexanol]
The melting point of the first is higher: 169 °C for the first, 163 °C for the second.

Compared with O=C1OC2(c3ccccc31)c1ccc(O)c(Br)c1Oc1c2ccc(O)c1Br [4',5'-dibromofluorescein], Cc1ccc(C=C2N=C(c3ccccc3)OC2=O)o1 [4-(5-Methyl-furan-2-ylmethylene)-2-phenyl-4H-oxazol-5-one] is lower in melting point: 272 °C for the first, 160 °C for the second.

Compared with CCC(=O)c1ccc(OCc2ccccc2)cc1 [4'-benzyloxypropiophenone], Oc1ccc(OCc2ccccc2)cc1 [4-benzyloxyphenol] is higher in melting point: 100 °C for the first, 120 °C for the second.

Compared with CC(=O)Nc1ccc(Cl)cc1 [4'-chloroacetanilide], CC(=O)Nc1ccc(O)cc1 [4-acetamidophenol] is lower in melting point: 179 °C for the first, 170 °C for the second.

Compared with O=C(/C=C/c1ccccc1)c1ccc(Cl)cc1 [4'-chlorochalcone], O=C(/C=C/c1ccccc1)c1ccc(O)cc1 [4'-hydroxychalcone] is higher in melting point: 99 °C for the first, 176 °C for the second.

Going from CCOc1ccc(NC(C)=O)cc1 [4'-ethoxyacetanilide] to CC(=O)Nc1ccc(O)cc1 [4-acetylaminophenol], the melting point rises from 135 °C to 170 °C.

Compared with CC(=O)c1ccc(O)c(C(F)(F)F)c1 [4'-hydroxy-3'-(trifluoromethyl)acetophenone], O=C(O)c1ccc(C(F)(F)F)cc1 [4-(trifluoromethyl)benzoic acid] is higher in melting point: 176 °C for the first, 221 °C for the second.

Compared with Cc1ccc2oc(-c3ccc(O)cc3)cc(=O)c2c1 [4'-hydroxy-6-methylflavone], Oc1ccc(-c2ccc(O)cc2)cc1 [4,4'-dihydroxybiphenyl] is higher in melting point: 241 °C for the first, 282 °C for the second.

First: O=C(O)c1ccc(-c2ccc(O)cc2)cc1 [4'-hydroxybiphenyl-4-carboxylic acid]
Second: CC(C)(C)c1ccc(-c2ccc(Br)cc2)cc1 [4-bromo-4'-tert-butylbiphenyl]
The melting point of the first is higher: 294 °C for the first, 142 °C for the second.

First: CC(=O)Nc1ccc(C(C)C)cc1 [4'-isopropylacetanilide]
Second: CC(=O)Nc1ccc(C(=O)O)cc1 [4-acetamidobenzoic acid]
The melting point of the first is lower: 104 °C for the first, 260 °C for the second.

Going from CC(=O)c1ccc(C)c([N+](=O)[O-])c1 [4'-methyl-3'-nitroacetophenone] to N#Cc1ccc(O)c([N+](=O)[O-])c1 [4-Hydroxy-3-nitrobenzonitrile], the melting point rises from 60 °C to 141 °C.

Compared with CC(=O)c1ccc(Oc2ccccc2)cc1 [4'-phenoxyacetophenone], O=C(O)c1ccc(C(=O)c2ccccc2)cc1 [4-benzoylbenzoic acid] is higher in melting point: 50 °C for the first, 199 °C for the second.

Compared with O=C(O)c1ccc(C(=O)OC(=O)c2ccc(C(=O)O)cc2C(=O)O)c(C(=O)O)c1 [4,4'-(Oxydicarbonyl)diisophthalic acid], CC(=O)Nc1ccc(C(=O)O)cc1 [4-acetamidobenzoic_acid] is higher in melting point: 165 °C for the first, 259 °C for the second.

Compared with CC(=O)CCc1ccc(CCC(C)=O)cc1 [4,4'-benzene-1,4-diyldibutan-2-one], COc1cc(CCC(C)=O)ccc1O [4-(4-hydroxy-3-methoxyphenyl)-2-butanone] is lower in melting point: 56 °C for the first, 41 °C for the second.

First: Nc1ccc(NC(=O)c2ccc(N)cc2)cc1 [4,4'-diaminobenzanilide]
Second: NC(=O)c1ccc(N)cc1 [4-aminobenzamide]
The melting point of the first is higher: 201 °C for the first, 183 °C for the second.

Going from COc1ccc(Nc2ccc(OC)cc2)cc1 [4,4'-dimethoxydiphenylamine] to COc1ccc(O)cc1 [4-Methoxyphenol], the melting point falls from 102 °C to 56 °C.

Going from CN(C)C(=S)NN [4,4-dimethyl-3-thiosemicarbazide] to Cc1ccc(NC(=S)NN)c(C)c1 [4-(2,4-dimethylphenyl)-3-thiosemicarbazide], the melting point rises from 145 °C to 151 °C.

Compared with C/C=C\C(C)(C)C [4,4-dimethyl-cis-2-pentene], CC(=O)CC(C)C [4-Methylpentan-2-one] is higher in melting point: -135 °C for the first, -80 °C for the second.

Compared with Clc1nc[nH]c1Cl [4,5-dichloroimidazole], O=C1Nc2c(Cl)ccc(Cl)c2C1=O [4,7-dichloroisatin] is higher in melting point: 181 °C for the first, 248 °C for the second.

Compared with COc1cc(CC(=O)O)c([N+](=O)[O-])cc1OC [4,5-dimethoxy-2-nitrophenylacetic acid], COc1ccc(CCCC(=O)O)cc1 [4-(4-methoxyphenyl)butanoic acid] is lower in melting point: 207 °C for the first, 59 °C for the second.

First: Oc1ccc(-n2ccnc2)cc1 [4-(1-imidazolyl)phenol]
Second: Nc1ccc(O)cc1 [4-Aminophenol]
The melting point of the first is higher: 206 °C for the first, 189 °C for the second.

Going from CN(C)NC(=O)CCC(=O)O [4-(2,2-Dimethylhydrazino)-4-oxobutanoic acid] to O=C(O)CCCc1ccc(F)cc1 [4-(4-fluorophenyl)butyric acid], the melting point falls from 154 °C to 45 °C.

Going from O=C1OC(c2ccccc2)=NC1=Cc1ccccc1F [4-(2-Fluoro-benzylidene)-2-phenyl-4H-oxazol-5-one] to Cc1[nH]n(-c2ccccc2)c(=O)c1C(=O)c1ccccc1 [4-benzoyl-3-methyl-1-phenyl-5-pyrazolinone], the melting point falls from 149 °C to 91 °C.

Compared with CC(C)(c1ccccc1)c1ccc(O)cc1 [4-(2-Phenylpropan-2-yl)phenol], O=C(c1ccccc1)c1ccc(C(F)(F)F)cc1 [4-(trifluoromethyl)benzophenone] is higher in melting point: 71.5 °C for the first, 118 °C for the second.

Going from O=C(O)/C=C/c1ccc(B(O)O)cc1 [4-(2-carboxyvinyl)benzeneboronic acid] to CSc1ccc(B(O)O)cc1 [4-(methylthio)benzeneboronic acid], the melting point rises from 193 °C to 210 °C.

First: Nc1ccc(-c2cccs2)cc1 [4-(2-thienyl)aniline]
Second: Nc1ccc(N=Nc2ccccc2)cc1 [4-(Phenyldiazenyl)aniline]
The melting point of the first is lower: 76 °C for the first, 124 °C for the second.

Going from CCc1ccc(NC(=S)NN)cc1 [4-(4-ethylphenyl)-3-thiosemicarbazide] to CCc1ccc(O)cc1 [4-Ethylphenol], the melting point falls from 130 °C to 43.5 °C.

Compared with Nc1ccc(N2CCOCC2)cc1 [4-(4-morpholinyl)aniline], O=[N+]([O-])c1ccc(N2CCOCC2)cc1 [4-(4-nitrophenyl)morpholine] is higher in melting point: 131 °C for the first, 150 °C for the second.

Going from CN(C)c1ccc(C=O)cc1 [4-(Dimethylamino)benzaldehyd] to O=Cc1ccc(Br)cc1 [4-bromobenzaldehyde], the melting point falls from 75 °C to 57 °C.

Going from N#CCc1ccc(B(O)O)cc1 [4-(cyanomethyl)benzeneboronic acid] to OB(O)c1ccc(OC(F)(F)F)cc1 [4-(trifluoromethoxy)benzeneboronic acid], the melting point falls from 198 °C to 123 °C.

First: CN(C)c1ccncc1 [4-(dimethylamino)pyridine]
Second: COc1ccc(N)c(C)c1 [4-Methoxy-2-methylaniline]
The melting point of the first is higher: 112 °C for the first, 13.5 °C for the second.

Compared with O=C(O)COc1ccc(CO)cc1 [4-(hydroxymethyl)phenoxyacetic acid], COc1ccc(C(=O)Cl)cc1 [4-Methoxybenzoyl chloride] is lower in melting point: 112 °C for the first, 22 °C for the second.

First: NNC(=O)c1ccc(C(F)(F)F)cc1 [4-(trifluoromethyl)benzhydrazide]
Second: Nc1ccc(C(=O)O)cc1 [4-Aminobenzoic Acid]
The melting point of the first is lower: 119 °C for the first, 188 °C for the second.

Going from O=C(O)c1cnccc1C(F)(F)F [4-(trifluoromethyl)nicotinic acid] to Nc1ccc(C(=O)O)cc1 [4-Aminobenzoic acid] [listing 1 of 2 here], the melting point rises from 148 °C to 189 °C.

First: Nc1cc(Cl)c(O)c(Cl)c1 [4-Amino-2,6-dichlorophenol]
Second: Nc1ccc(Br)c(Cl)c1 [4-bromo-3-chloroaniline]
The melting point of the first is higher: 168 °C for the first, 64 °C for the second.

Compared with Nc1ccc(C(=O)O)cc1 [4-Aminobenzoic acid] [listing 2 of 2 here], Nc1ccc(Cl)cc1 [4-Chloroaniline] is lower in melting point: 188 °C for the first, 72.5 °C for the second.

First: Cc1cc(O)ccc1Br [4-Brom-3-methylphenol]
Second: Cc1cc(Br)ccc1N [4-bromo-2-methylaniline] [listing 1 of 2 here]
The melting point of the first is higher: 64 °C for the first, 52 °C for the second.

Going from CSc1nc(Cl)cc(N2CCCCC2)n1 [4-Chloro-2-(methylsulfanyl)-6-(piperidin-1-yl)pyrimidine] to Cc1cc(N)nc(C)n1 [4-amino-2,6-dimethylpyrimidine], the melting point rises from 83.8 °C to 185 °C.

Going from Nc1ccc(Cl)cc1N [4-Chlorobenzene-1,2-diamine] to Cc1cc(Br)ccc1N [4-bromo-2-methylaniline] [listing 2 of 2 here], the melting point falls from 68.5 °C to 58 °C.

Going from O=C(Cl)c1ccc(Cl)cc1 [4-Chlorobenzoyl chloride] to O=[N+]([O-])c1ccc(Cl)cc1 [4-Chloronitrobenzene], the melting point rises from 13 °C to 83.5 °C.

Compared with O=[N+]([O-])c1cc[n+]([O-])c2ccccc12 [4-Nitroquinoline 1-oxide], [O-][n+]1ccc(OCc2ccccc2)cc1 [4-benzyloxypyridine n-oxide] is higher in melting point: 154 °C for the first, 174 °C for the second.

Compared with C=CC1CC=CCC1 (centres undefined) [4-Vinylcyclohexene], O=C1CN(C(=O)OCc2ccccc2)CCN1 [4-benzyloxycarbonyl-2-piperazinone] is higher in melting point: -101 °C for the first, 120 °C for the second.

First: Nc1ccc(/N=C/c2cccc([N+](=O)[O-])c2)cc1 [4-[(E)-(3-Nitrobenzylidene)amino]aniline]
Second: Nc1ccc(C(=O)O)cc1 [4-aminobenzoic acid]
The melting point of the first is lower: 148 °C for the first, 188 °C for the second.

Going from CCCCc1ccc(/N=N/c2ccc(OC(=O)CC)cc2)cc1 [4-[(E)-(4-butylphenyl)diazenyl]phenyl propanoate] to OB(O)c1ccc(OCc2ccccc2)cc1 [4-benzyloxybenzeneboronic acid], the melting point rises from 86 °C to 196 °C.

Compared with CC(=O)c1ccc(C#N)cc1 [4-acetylbenzonitrile], N#Cc1ccc(N)cc1 [4-aminobenzonitrile] is higher in melting point: 58 °C for the first, 85 °C for the second.

Compared with Nc1cn[nH]c1 [4-amino-1h-pyrazole], N#Cc1cc(F)c(N)cc1F [4-amino-2,5-difluorobenzonitrile] is higher in melting point: 75 °C for the first, 93 °C for the second.

First: OB(O)c1ccc(Br)c(F)c1F [4-bromo-2,3-difluorobenzeneboronic acid]
Second: Clc1cc(Br)ccc1I [4-bromo-2-chloro-1-iodobenzene]
The melting point of the first is higher: 225 °C for the first, 34 °C for the second.
